From paper PMC4774911, “Biochemical Screening of Five Protein Kinases from Plasmodium falciparum against 14,000 Cell-Active Compounds” (PLoS ONE, 2016)
Read-outs that look alike come from different tables or passages of the source.

Tests used:
[1] = tested on: Plasmodium falciparum mitogen-associated protein kinase 2 (MAPK2/MAP2); assay: MAPK2 Kinase-Glo ATP-consumption screen; assay type: biochemical; details: concentrations of 10–30 μM
Protocol: Biochemical assays were performed in white 384-well plates (Nunc). Liquid transfers were done manually with 8-channel pipets. Compounds were initially tested in a single-point screen (final concentration 1 μM). […] The catalytic activity of each kinase was considered proportional to ATP consumed, as determined from measurements of residual [ATP] with the luciferase-based reagent Kinase-Glo (Promega) following incubation. Luminescence (proportional to residual [ATP]) was measured on the plate readers FLx800 (BioTek Instruments, Winooski, VT, USA) and MicroBeta^2 (PerkinElmer, Waltham, MA, USA). Incubation times were chosen to ensure near-complete ATP depletion in the absence of inhibition, thus maximizing the difference in signal between inhibited and uninhibited wells.
Final concentrations were 1 μM ATP, 0.5 mM DTT, 1 mM MgCl2, 0.5 mg/mL BSA, and 10 μg/ml MAP2 in a buffer of 50 mM HEPES (pH 7.0). 0.5 mg/mL histone III-S served as the substrate; 100 μM AMP-PNP, an ATP analog, was used as a control inhibitor. Incubation time was 4 hours.

[2] = target: T1, Plasmodium falciparum calcium-dependent protein kinase 4 (CDPK4) (Plasmodium falciparum, UniProt Q8IBS5); assay: CDPK4 Kinase-Glo ATP-consumption screen and dose-response; assay type: biochemical; details: hits below 1 uM
T1 construct: 6-Histidine (N); made in house
T1 sequence (Q8IBS5 1-528): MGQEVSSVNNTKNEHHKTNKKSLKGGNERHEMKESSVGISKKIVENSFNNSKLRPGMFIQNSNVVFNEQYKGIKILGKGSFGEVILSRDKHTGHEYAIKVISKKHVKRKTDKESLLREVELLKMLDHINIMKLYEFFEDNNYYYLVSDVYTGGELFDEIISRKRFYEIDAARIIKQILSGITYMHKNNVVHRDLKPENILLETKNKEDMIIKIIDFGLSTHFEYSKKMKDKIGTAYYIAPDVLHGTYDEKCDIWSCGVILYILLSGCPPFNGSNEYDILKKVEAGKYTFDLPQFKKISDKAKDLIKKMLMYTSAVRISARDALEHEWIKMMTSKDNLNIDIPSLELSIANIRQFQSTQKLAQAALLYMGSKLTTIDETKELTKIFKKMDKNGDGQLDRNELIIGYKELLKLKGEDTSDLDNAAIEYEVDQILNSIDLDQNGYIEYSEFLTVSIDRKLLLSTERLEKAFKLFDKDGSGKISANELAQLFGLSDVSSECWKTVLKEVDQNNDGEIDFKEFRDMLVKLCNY
How it was run: (§1)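 Single-point testing used 1 μM final compound, then dose-response, against CDPK4 and CDPK1 with Syntide-2 (40 μM) as substrate. After 90 min, reactions were halted by 5 mM EGTA, and kinase activity was inferred from depleted ATP via Kinase-Glo luminescence.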

[3] = target: T2, Plasmodium falciparum protein kinase 6 (PK6) (Plasmodium falciparum, UniProt Q8IDW1); assay: biochemical; details: hits below 1 uM; read-out: PK6 IC50
T2 construct: 6-Histidine (N); made in house
T2 sequence (Q8IDW1 1-305): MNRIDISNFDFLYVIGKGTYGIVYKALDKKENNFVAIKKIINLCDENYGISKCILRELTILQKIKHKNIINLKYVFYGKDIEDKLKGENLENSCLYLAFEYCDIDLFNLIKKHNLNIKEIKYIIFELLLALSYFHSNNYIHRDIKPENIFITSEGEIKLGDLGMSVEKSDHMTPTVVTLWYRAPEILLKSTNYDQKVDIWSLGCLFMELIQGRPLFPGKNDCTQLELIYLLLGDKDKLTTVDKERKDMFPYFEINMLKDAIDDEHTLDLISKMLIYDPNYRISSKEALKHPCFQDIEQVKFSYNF

[4] = target: T3, PKG (Plasmodium falciparum, UniProt Q8I719); assay: PKG IC50 (supplementary data file); assay type: biochemical
From the text: (§2) Supplement pone.0149996.s003.xls, sheet "combined_1_sorted"

[5] = tested on: HepG2 cells; details: cited from earlier work
[6] = tested on: P. falciparum 3D7 cells; details: cited from earlier work
[7] = tested on: DD2; design: method as in F.J. Gamo et al., Nature 2010; details: downloaded from ChEMBL, ref F.J. Gamo et al., Nature 2010; cited from earlier work
[8] = tested on: 3D7 PFLDH; design: method as in F.J. Gamo et al., Nature 2010; concentration or dose not given beside the values; details: downloaded from ChEMBL, ref F.J. Gamo et al., Nature 2010; cited from earlier work
[9] = target: T4, Plasmodium falciparum calcium-dependent protein kinase 1 (CDPK1) (Plasmodium falciparum, UniProt P62344); assay: biochemical; design: Kinase-Glo luminescence ATP depletion, Syntide-2 substrate, 10 uM ATP, CDPK1 or CDPK4
T4 construct: 6-Histidine (N); made in house
Protocol: Biochemical assays were performed in white 384-well plates (Nunc). Liquid transfers were done manually with 8-channel pipets. Compounds were initially tested in a single-point screen (final concentration 1 μM). […] (In the PK6 and PK7 screens, Z’ factors were suboptimal, so apparent hits were retested at 1 μM before proceeding with dose-response tests.) All incubations were at room temperature (~20°C). The catalytic activity of each kinase was considered proportional to ATP consumed, as determined from measurements of residual [ATP] with the luciferase-based reagent Kinase-Glo (Promega) following incubation. Luminescence (proportional to residual [ATP]) was measured on the plate readers FLx800 (BioTek Instruments, Winooski, VT, USA) and MicroBeta^2 (PerkinElmer, Waltham, MA, USA). Incubation times were chosen to ensure near-complete ATP depletion in the absence of inhibition, thus maximizing the difference in signal between inhibited and uninhibited wells. […] 40 μM Syntide-2 was used as a substrate; BKI-1 [14] was used as a control inhibitor, while reaction mixtures lacking Syntide-2 were included as an additional negative control. Incubation time was 90 minutes. Reactions were terminated by adding excess EGTA (5 mM), which sequesters Ca^2+ and halts calcium-dependent kinase activity.

[10] = target: T4, Plasmodium falciparum calcium-dependent protein kinase 1 (CDPK1); assay: CDPK1 Kinase-Glo ATP-consumption screen and dose-response; assay type: biochemical; details: hits below 1 uM; read-out: CDPK1 IC50
How it was run: as §1

[11] = target: T3, PKG; assay: PKG IC50 (supplementary data file of hits); assay type: biochemical
From the text: as §2

[12] = tested on: DD2; design: method as in F.J. Gamo et al., Nature 2010; details: P. falciparum Dd2; downloaded from ChEMBL ref F.J. Gamo et al., Nature 2010; cited from earlier work
[13] = tested on: 3D7 PFLDH; design: method as in F.J. Gamo et al., Nature 2010; details: downloaded from ChEMBL ref F.J. Gamo et al., Nature 2010; cited from earlier work
[14] = target: Plasmodium falciparum protein kinase 7 (PK7) (Plasmodium falciparum, UniProt Q7YTF7); assay: PK7 Kinase-Glo intrinsic ATPase (autophosphorylation) screen and dose-response; assay type: biochemical; details: hits below 1 uM
Protocol: Biochemical assays were performed in white 384-well plates (Nunc). Liquid transfers were done manually with 8-channel pipets. Compounds were initially tested in a single-point screen (final concentration 1 μM). […] (In the PK6 and PK7 screens, Z’ factors were suboptimal, so apparent hits were retested at 1 μM before proceeding with dose-response tests.) All incubations were at room temperature (~20°C). The catalytic activity of each kinase was considered proportional to ATP consumed, as determined from measurements of residual [ATP] with the luciferase-based reagent Kinase-Glo (Promega) following incubation. Luminescence (proportional to residual [ATP]) was measured on the plate readers FLx800 (BioTek Instruments, Winooski, VT, USA) and MicroBeta^2 (PerkinElmer, Waltham, MA, USA). Incubation times were chosen to ensure near-complete ATP depletion in the absence of inhibition, thus maximizing the difference in signal between inhibited and uninhibited wells.
Final concentrations were 1 μM ATP, 2 mM DTT, 20 mM MgCl2, 2 mM MnCl2, 0.01% BSA, and 6 μg/ml PK7 in a buffer of 20 mM Tris-HCl (pH 7.5). The enzyme itself was the only substrate present (since autophosphorylation occurs); 100 μM 1NA-PP1 [24] was used as a control inhibitor. Incubation time was 3 hours.

[15] = tested on: DD2; design: method as in downloaded from ChEMBL; details: ref downloaded from ChEMBL; cited from earlier work
[16] = tested on: 3D7 PFLDH; design: method as in downloaded from ChEMBL; details: ref downloaded from ChEMBL; cited from earlier work
[17] = 3D7, downloaded from ChEMBL, ref F.J. Gamo et al., Nature 2010
[18] = HepG2 cells, downloaded from ChEMBL ref F.J. Gamo et al., Nature 2010
[19] = P. falciparum 3D7, downloaded from ChEMBL ref F.J. Gamo et al., Nature 2010
[20] = HEPG2, ref downloaded from ChEMBL
[21] = 3D7, ref downloaded from ChEMBL

T3 sequence (Q8I719 whole entry): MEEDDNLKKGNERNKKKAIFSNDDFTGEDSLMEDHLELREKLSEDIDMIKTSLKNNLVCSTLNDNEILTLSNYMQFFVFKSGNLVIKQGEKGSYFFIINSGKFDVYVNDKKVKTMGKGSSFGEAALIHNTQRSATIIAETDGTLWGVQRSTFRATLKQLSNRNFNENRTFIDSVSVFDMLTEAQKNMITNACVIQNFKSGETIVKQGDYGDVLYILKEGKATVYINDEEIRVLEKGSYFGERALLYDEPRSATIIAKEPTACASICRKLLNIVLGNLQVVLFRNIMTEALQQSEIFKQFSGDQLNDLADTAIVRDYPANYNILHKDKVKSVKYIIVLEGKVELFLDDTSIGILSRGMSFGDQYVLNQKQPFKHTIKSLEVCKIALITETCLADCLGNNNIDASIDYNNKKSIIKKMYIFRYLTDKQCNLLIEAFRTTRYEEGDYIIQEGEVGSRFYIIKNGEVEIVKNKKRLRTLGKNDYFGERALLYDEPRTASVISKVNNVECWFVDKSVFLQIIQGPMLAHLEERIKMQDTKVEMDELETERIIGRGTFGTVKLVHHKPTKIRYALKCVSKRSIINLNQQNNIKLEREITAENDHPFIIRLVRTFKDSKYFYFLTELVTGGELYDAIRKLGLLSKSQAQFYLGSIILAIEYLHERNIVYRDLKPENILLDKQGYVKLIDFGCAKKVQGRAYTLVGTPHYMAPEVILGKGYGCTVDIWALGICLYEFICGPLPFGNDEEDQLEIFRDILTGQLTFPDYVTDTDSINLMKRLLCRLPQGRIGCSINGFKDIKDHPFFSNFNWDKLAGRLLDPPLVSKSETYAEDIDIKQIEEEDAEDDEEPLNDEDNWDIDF
T4 sequence (P62344 whole entry): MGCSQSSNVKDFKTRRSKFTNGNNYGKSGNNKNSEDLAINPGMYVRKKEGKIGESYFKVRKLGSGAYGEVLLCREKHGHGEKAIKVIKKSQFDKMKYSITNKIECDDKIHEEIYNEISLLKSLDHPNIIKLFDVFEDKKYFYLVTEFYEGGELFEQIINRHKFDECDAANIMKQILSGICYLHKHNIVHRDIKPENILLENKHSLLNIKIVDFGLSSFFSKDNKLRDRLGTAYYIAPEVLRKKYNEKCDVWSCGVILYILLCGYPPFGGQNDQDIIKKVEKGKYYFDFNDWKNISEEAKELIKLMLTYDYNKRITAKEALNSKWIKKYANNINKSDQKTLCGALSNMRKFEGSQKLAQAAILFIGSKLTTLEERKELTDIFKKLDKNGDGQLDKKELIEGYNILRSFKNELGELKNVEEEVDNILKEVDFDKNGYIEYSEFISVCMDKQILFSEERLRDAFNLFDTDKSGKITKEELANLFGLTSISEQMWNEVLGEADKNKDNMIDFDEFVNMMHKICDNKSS
Sequence of Plasmodium falciparum protein kinase 7 (PK7) (Q7YTF7 entry or part of it): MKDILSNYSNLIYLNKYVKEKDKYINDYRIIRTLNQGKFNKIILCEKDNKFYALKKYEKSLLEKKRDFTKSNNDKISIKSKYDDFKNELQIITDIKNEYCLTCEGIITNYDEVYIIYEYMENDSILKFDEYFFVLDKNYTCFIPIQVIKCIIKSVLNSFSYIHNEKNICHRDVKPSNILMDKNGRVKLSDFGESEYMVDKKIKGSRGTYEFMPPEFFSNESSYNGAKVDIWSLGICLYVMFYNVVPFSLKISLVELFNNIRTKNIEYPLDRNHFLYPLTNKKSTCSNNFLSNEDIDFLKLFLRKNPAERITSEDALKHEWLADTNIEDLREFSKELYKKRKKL

Row | IC50 [2] [nM] | IC50 [3] [nM] | IC50 [10] [nM] | IC50 [11] [nM] | SMILES | PCT_INHIB_HEPG2 [5, 18] | PCT_IHB_3D7 [6, 19] | pXC50_3D7 [6, 19] | PCT_INHB_DD2 [12] | PCT_INHIB_3D7_PFLDH [13] | other results
1 | – | – | – | – | Cc1ccc(-n2nc(C(C)(C)C)cc2NC(=O)Nc2ccc(OCCN3CCOCC3)c3ccccc23)cc1 [BIRB796] | – | – | – | – | – | Inhibition of MAPK2 (tested as possible control inhibitor) [1]: None gave consistent inhibition
2 | – | – | – | – | O=C1Nc2ccc3ncsc3c2/C1=C/Nc1ccc(S(=O)(=O)Nc2ccccn2)cc1 [GW8510] | – | – | – | – | – | Inhibition of MAPK2 (tested as possible control inhibitor) [1]: None gave consistent inhibition
3 | 26 | 144 | 15 | 524 | CC(=O)Nc1cccc(Nc2nccc(-c3c(-c4cccc(NC(=O)c5c(F)cccc5F)c4)nn4ncccc34)n2)c1 [TCMDC-135548] | 83 | 96 | 6.736 | 51 | 5 | –
4 | 24 | 375 | 95 | > 10000 | CC(c1cccc(Nc2nccc(-c3c(-c4cccc(NC(=O)c5c(F)cccc5F)c4)nn4ncccc34)n2)c1)S(C)(=O)=O (stereo not drawn) [TCMDC-135696] | 79 | 98 | 7.341 | 98 | 4 | –
5 | 65 | 105 | 50 | > 10000 | CS(=O)(=O)Cc1ccc(Nc2nccc(-c3c(-c4cccc(C(=O)Nc5c(F)cccc5F)c4)nn4ccccc34)n2)cc1 [TCMDC-135742] | 85 | 96 | 6.274 | 92 | 0 | –
6 | 67 | 139 | 37 | > 10000 | CS(=O)(=O)Cc1ccc(Nc2nccc(-c3c(-c4cccc(NC(=O)C5CCCCC5)c4)nn4ncccc34)n2)cc1 [TCMDC-135812] | 31 | 98 | 6.697 | 99 | 0 | –
7 | 86 | 302 | 429 | 131 | CCN(CC)CCCOc1ccc(Nc2nccc(-c3c(-c4cccc(NC(=O)c5c(F)cccc5F)c4)nn4ccccc34)n2)cc1F [TCMDC-135920] | 86 | 100 | 6.39 | 99 | 0 | –
8 | – | – | – | – | O=C(O)c1ccc(-c2cnc3ccc(NC4CCC(O)CC4)nn23)cc1 (stereo not drawn) [TCMDC-136692] | – | – | – | – | – | IC50 [14]: 419 nM; PCT_INHIB_HEPG2 [5, 20]: 9; PCT_IHB_3D7 [6, 21]: 98; pXC50_3D7 [6, 21]: 6.002; PCT_INHB_DD2 [15]: 90; PCT_INHIB_3D7_PFLDH [16]: 3
9 | – | – | – | – | CC(C)(CN)c1nc(-c2ccc(Cl)c(O)c2)c(-c2ccncc2)[nH]1.Cl [TCMDC-140369] | 34 | 97 | 6.122 | 98 | 0 | IC50 [9]: 10.5 nM
10 | 433 | – | 13 | 42 | CC(C)(CN)c1cc(-c2ccc(Cl)c(O)c2)c(-c2ccncc2)o1.Cl [TCMDC-141334] | 44 | 92 | 5.944 | 97 | 7 | –
11 | – | – | – | – | NC1=NC(=O)/C(=C2\CCNC(=O)c3[nH]c(Br)cc32)N1 [hymenialdisine] | – | – | – | – | – | Inhibition of MAPK2 (tested as possible control inhibitor) [1]: None gave consistent inhibition

Row | SMILES | IC50 [2] [nM] | IC50 [3] [nM] | IC50 [10] [nM] | IC50 [11] [nM] | PCT_INHIB_HEPG2 [5, 18] | PCT_IHB_3D7 [6, 19] | pXC50_3D7 [6, 19] | PCT_INHB_DD2 [12] | PCT_INHIB_3D7_PFLDH [13] | other results
12 | Cc1cc(Nc2ncc(C#N)c(Nc3ccccc3C(N)=O)n2)ccc1N1CCN(C)CC1.Cl [TCMDC-134115] | 89 | 54 | – | – | – | – | – | – | – | IC50 [4]: 63 nM; PCT_INHIB_HEPG2 ([5]; HepG2, downloaded from ChEMBL, ref F.J. Gamo et al., Nature 2010): 99%; PCT_IHB_3D7 [6, 17]: 94%; pXC50_3D7 [6, 17]: 8.064; PCT_INHB_DD2 [7]: 94%; PCT_INHIB_3D7_PFLDH [8]: 0%; IC50 [9]: 10.4 nM
13 | OC1CCC(Nc2ccc3ncc(-c4ccc(Cl)cc4)n3n2)CC1 (stereo not drawn) [TCMDC-136693] | – | – | 503 | – | – | – | – | – | – | IC50 [14]: 438 nM; PCT_INHIB_HEPG2 [5, 20]: 57; PCT_IHB_3D7 [6, 21]: 97; pXC50_3D7 [6, 21]: 6.084; PCT_INHB_DD2 [15]: 98; PCT_INHIB_3D7_PFLDH [16]: 0
